This series is described as follows: recombinant UMI read abundance after kanamycin selection (control-corrected) (log10(CPM+1)); higher = more efficient recombination; extreme values may be limits of the assay; sequences stand for … in AGTGCAGAGAAAATCGGCCAGTTTTCTCTGCCTGCAGTCCGCATGCCGTGGGACCCCTTGGGTTCTAACCTGTTGCCTAGATTTATGCAGCGGACTGCCTTTCTCCCAAAGTGATAAACCGG…AGGTTGGTTTCACT; site = the 11-nt donor. The gist of the method:
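In Escherichia coli, a pool of donor and donor-binding-loop pairs, each with a 12-nt UMI, was tested for the IS621 bridge recombinase. Plating was on IPTG (0.07 mM) plus kanamycin, or without selection, in two replicates. Recombinant UMIs were amplified by PCR across the donor–target junction and sequenced, and counts were reported as log10(CPM+1) after averaging and control-derived scaling.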
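Also: IS621 bridge recombinase in Escherichia coli cells against a fixed T5 target plasmid.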

In the case of “CAGTCCTCATGGACCGGTTTTCCCGGTAATCCGTATTTGCC (site CAGTCCTCTGG)”, the “recombinant UMI read abundance (log10)” value is 2.38.

Regarding “CAGTCCTCATGGACCGGTTTTCCCGGTAATCCGTATTTGCC (site CATTCCTCTGG)”, the “recombinant UMI read abundance (log10)” value turned out to be 0.879.

For the sequence “CAGTCGACATGGACCGGTTTTCCCGGTAATCCGTATTTGTG (site CAGTCGACTCA)”, the “recombinant UMI read abundance (log10)” value turned out to be 0.661.

Regarding “CAGTCGACATGGACCGGTTTTCCCGGTAATCCGTATTTGTG (site CAGTCGACTCC)”, the “recombinant UMI read abundance (log10)” value was found to be 0.022.

For the sequence “CAGTCGACATGGACCGGTTTTCCCGGTAATCCGTATTTGTG (site CAGTCGACTCG)”, the “recombinant UMI read abundance (log10)” value was 0.00379.

In the case of “CAGTCGACATGGACCGGTTTTCCCGGTAATCCGTATTTGTG (site CAGTCGACTCT)”, the “recombinant UMI read abundance (log10)” value stood at 0.00896.

Take “CAGTCGTCATGGACCGGTTTTCCCGGTAATCCGTATTTGGG (site CAGTCGACTCC)”: the “recombinant UMI read abundance (log10)” value was determined as 0.00913.

On to “CAGTCGTCATGGACCGGTTTTCCCGGTAATCCGTATTTGGG (site CAGTCGCCTCC)”, for which the “recombinant UMI read abundance (log10)” value was 0.0207.

Regarding “CAGTCGTCATGGACCGGTTTTCCCGGTAATCCGTATTTGGG (site CAGTCGGCTCC)”, the “recombinant UMI read abundance (log10)” value was determined as 0.0122.

In the case of “CAGTCGTCATGGACCGGTTTTCCCGGTAATCCGTATTTGGG (site CAGTCGTCTCC)”, the “recombinant UMI read abundance (log10)” value came to 0.348.

Turning to “CAGTGCTCATGGACCGGTTTTCCCGGTAATCCGTATTTGAA (site CAATGCTCTTT)”, the “recombinant UMI read abundance (log10)” value was 1.35.

As to “CAGTGCTCATGGACCGGTTTTCCCGGTAATCCGTATTTGAA (site CACTGCTCTTT)”, the “recombinant UMI read abundance (log10)” value was 0.28.

“CAGTGCTCATGGACCGGTTTTCCCGGTAATCCGTATTTGAA (site CAGTGCTCTTT)”: the “recombinant UMI read abundance (log10)” value worked out at 2.48.

With “CAGTGCTCATGGACCGGTTTTCCCGGTAATCCGTATTTGAA (site CATTGCTCTTT)”, the “recombinant UMI read abundance (log10)” value came to 0.0098.

Consider “CAGTGGACATGGACCGGTTTTCCCGGTAATCCGTATTTGGG (site CAGTAGACTCC)”, for which the “recombinant UMI read abundance (log10)” value turned out to be 0.368.

Consider “CAGTGGACATGGACCGGTTTTCCCGGTAATCCGTATTTGGG (site CAGTCGACTCC)”, for which the “recombinant UMI read abundance (log10)” value was determined as 0.0117.

As to “CAGTGGACATGGACCGGTTTTCCCGGTAATCCGTATTTGGG (site CAGTGGACTCC)”, the “recombinant UMI read abundance (log10)” value came out at 0.0835.

For the sequence “CAGTGGACATGGACCGGTTTTCCCGGTAATCCGTATTTGGG (site CAGTTGACTCC)”, the “recombinant UMI read abundance (log10)” value was determined as 0.0125.

For “CAGTTAGCATGGACCGGTTTTCCCGGTAATCCGTATTTGTG (site CAGTTAGCTCA)”, the “recombinant UMI read abundance (log10)” value was 2.09.

On to “CAGTTAGCATGGACCGGTTTTCCCGGTAATCCGTATTTGTG (site CCGTTAGCTCA)”, for which the “recombinant UMI read abundance (log10)” value came to 0.0219.

On to “CAGTTAGCATGGACCGGTTTTCCCGGTAATCCGTATTTGTG (site CGGTTAGCTCA)”, for which the “recombinant UMI read abundance (log10)” value was determined as 0.347.

For the sequence “CAGTTAGCATGGACCGGTTTTCCCGGTAATCCGTATTTGTG (site CTGTTAGCTCA)”, the “recombinant UMI read abundance (log10)” value is 0.364.

As for “CAGTTCCCATGGACCGGTTTTCCCGGTAATCCGTATTTGCT (site CAATTCCCTAG)”, the “recombinant UMI read abundance (log10)” value amounted to 0.806.

On to “CAGTTCCCATGGACCGGTTTTCCCGGTAATCCGTATTTGCT (site CACTTCCCTAG)”, for which the “recombinant UMI read abundance (log10)” value is 0.644.

For “CAGTTCCCATGGACCGGTTTTCCCGGTAATCCGTATTTGCT (site CAGTTCCCTAG)”, the “recombinant UMI read abundance (log10)” value is 0.863.

In the case of “CAGTTCCCATGGACCGGTTTTCCCGGTAATCCGTATTTGCT (site CATTTCCCTAG)”, the “recombinant UMI read abundance (log10)” value came to 0.433.

As for “CAGTTGGCATGGACCGGTTTTCCCGGTAATCCGTATTTGGA (site CAATTGGCTTC)”, the “recombinant UMI read abundance (log10)” value stood at 0.882.

In the case of “CAGTTGGCATGGACCGGTTTTCCCGGTAATCCGTATTTGGA (site CACTTGGCTTC)”, the “recombinant UMI read abundance (log10)” value was 0.076.

Turning to “CAGTTGGCATGGACCGGTTTTCCCGGTAATCCGTATTTGGA (site CAGTTGGCTTC)”, the “recombinant UMI read abundance (log10)” value turned out to be 1.72.

As to “CAGTTGGCATGGACCGGTTTTCCCGGTAATCCGTATTTGGA (site CATTTGGCTTC)”, the “recombinant UMI read abundance (log10)” value was found to be 0.00616.

In the case of “CATAATACATGGACCGGTTTTCCCGGTAATCCGTATTTGGC (site CATAATACTGC)”, the “recombinant UMI read abundance (log10)” value turned out to be 1.88.

For the sequence “CATAATACATGGACCGGTTTTCCCGGTAATCCGTATTTGGC (site CCTAATACTGC)”, the “recombinant UMI read abundance (log10)” value was determined as 0.

Take “CATAATACATGGACCGGTTTTCCCGGTAATCCGTATTTGGC (site CGTAATACTGC)”: the “recombinant UMI read abundance (log10)” value worked out at 0.

With “CATAATACATGGACCGGTTTTCCCGGTAATCCGTATTTGGC (site CTTAATACTGC)”, the “recombinant UMI read abundance (log10)” value stood at 0.

For “CATAGCCCATGGACCGGTTTTCCCGGTAATCCGTATTTGAG (site CATAGCCCTCT)”, the “recombinant UMI read abundance (log10)” value stood at 0.0141.

Take “CATATTGCATGGACCGGTTTTCCCGGTAATCCGTATTTGCA (site CATATTGCTTG)”: the “recombinant UMI read abundance (log10)” value worked out at 0.

“CATATTGCATGGACCGGTTTTCCCGGTAATCCGTATTTGTT (site CATATTGCTAA)”: the “recombinant UMI read abundance (log10)” value was 1.21.

As for “CATCACACATGGACCGGTTTTCCCGGTAATCCGTATTTGGT (site CATCACACTAC)”, the “recombinant UMI read abundance (log10)” value turned out to be 1.24.

As to “CATCGAACATGGACCGGTTTTCCCGGTAATCCGTATTTGAT (site CATCGAACTAT)”, the “recombinant UMI read abundance (log10)” value stood at 0.616.

On to “CATCGAACATGGACCGGTTTTCCCGGTAATCCGTATTTGCT (site CATCGAACTAG)”, for which the “recombinant UMI read abundance (log10)” value was found to be 2.31.

Consider “CATCGGACATGGACCGGTTTTCCCGGTAATCCGTATTTGAA (site CATCGGACTTT)”, for which the “recombinant UMI read abundance (log10)” value came out at 1.53.

Regarding “CATCGGGCATGGACCGGTTTTCCCGGTAATCCGTATTTGCC (site CATCGGGCTGG)”, the “recombinant UMI read abundance (log10)” value turned out to be 1.31.

For the sequence “CATCTTGCATGGACCGGTTTTCCCGGTAATCCGTATTTGCG (site CATCTTGCTCG)”, the “recombinant UMI read abundance (log10)” value worked out at 0.00609.

Take “CATCTTTCATGGACCGGTTTTCCCGGTAATCCGTATTTGGT (site CATCTTTCTAC)”: the “recombinant UMI read abundance (log10)” value amounted to 0.00559.

“CATGCGCCATGGACCGGTTTTCCCGGTAATCCGTATTTGTG (site CAAGCGCCTCA)”: the “recombinant UMI read abundance (log10)” value is 0.0274.

As to “CATGCGCCATGGACCGGTTTTCCCGGTAATCCGTATTTGTG (site CACGCGCCTCA)”, the “recombinant UMI read abundance (log10)” value is 0.0136.

On to “CATGCGCCATGGACCGGTTTTCCCGGTAATCCGTATTTGTG (site CAGGCGCCTCA)”, for which the “recombinant UMI read abundance (log10)” value is 0.025.

With “CATGCGCCATGGACCGGTTTTCCCGGTAATCCGTATTTGTG (site CATGCGCCTCA)”, the “recombinant UMI read abundance (log10)” value was 0.0238.

Consider “CATGGCCCATGGACCGGTTTTCCCGGTAATCCGTATTTGTT (site CAAGGCCCTAA)”, for which the “recombinant UMI read abundance (log10)” value stood at 0.0112.

Consider “CATGGCCCATGGACCGGTTTTCCCGGTAATCCGTATTTGTT (site CACGGCCCTAA)”, for which the “recombinant UMI read abundance (log10)” value was 0.00402.

Regarding “CATGGCCCATGGACCGGTTTTCCCGGTAATCCGTATTTGTT (site CAGGGCCCTAA)”, the “recombinant UMI read abundance (log10)” value stood at 0.0418.

With “CATGGCCCATGGACCGGTTTTCCCGGTAATCCGTATTTGTT (site CATGGCCCTAA)”, the “recombinant UMI read abundance (log10)” value was determined as 0.00575.

With “CATTAGCCATGGACCGGTTTTCCCGGTAATCCGTATTTGGA (site CATTAGCCTTC)”, the “recombinant UMI read abundance (log10)” value was 0.0164.

As to “CATTCCACATGGACCGGTTTTCCCGGTAATCCGTATTTGCA (site CATTCCACTTG)”, the “recombinant UMI read abundance (log10)” value turned out to be 1.95.

“CATTCGACATGGACCGGTTTTCCCGGTAATCCGTATTTGGG (site CAATCGACTCC)”: the “recombinant UMI read abundance (log10)” value came out at 0.0123.

As for “CATTCGACATGGACCGGTTTTCCCGGTAATCCGTATTTGGG (site CACTCGACTCC)”, the “recombinant UMI read abundance (log10)” value was 0.0107.

On to “CATTCGACATGGACCGGTTTTCCCGGTAATCCGTATTTGGG (site CAGTCGACTCC)”, for which the “recombinant UMI read abundance (log10)” value worked out at 0.0114.

In the case of “CATTCGACATGGACCGGTTTTCCCGGTAATCCGTATTTGGG (site CATTCGACTCC)”, the “recombinant UMI read abundance (log10)” value was determined as 0.00677.

For the sequence “CATTCTCCATGGACCGGTTTTCCCGGTAATCCGTATTTGAG (site CATTCTCCTCT)”, the “recombinant UMI read abundance (log10)” value was determined as 0.0129.

For the sequence “CATTGAACATGGACCGGTTTTCCCGGTAATCCGTATTTGTT (site CATTGAACTAA)”, the “recombinant UMI read abundance (log10)” value amounted to 0.0984.

As for “CATTGCACATGGACCGGTTTTCCCGGTAATCCGTATTTGTT (site CATTGCACTAA)”, the “recombinant UMI read abundance (log10)” value was 0.487.

Regarding “CATTGCTCATGGACCGGTTTTCCCGGTAATCCGTATTTGAA (site CAATGCTCTTT)”, the “recombinant UMI read abundance (log10)” value is 0.335.

For “CATTGCTCATGGACCGGTTTTCCCGGTAATCCGTATTTGAA (site CACTGCTCTTT)”, the “recombinant UMI read abundance (log10)” value amounted to 0.00354.

Consider “CATTGCTCATGGACCGGTTTTCCCGGTAATCCGTATTTGAA (site CAGTGCTCTTT)”, for which the “recombinant UMI read abundance (log10)” value came out at 0.351.

Take “CATTGCTCATGGACCGGTTTTCCCGGTAATCCGTATTTGAA (site CATTGCTCTTT)”: the “recombinant UMI read abundance (log10)” value turned out to be 1.05.

On to “CCAAATTCATGGACCGGTTTTCCCGGTAATCCGTATTTGTT (site CCAAATTCTAA)”, for which the “recombinant UMI read abundance (log10)” value turned out to be 0.

On to “CCAACCCCATGGACCGGTTTTCCCGGTAATCCGTATTTGCT (site CCAACCCCTAG)”, for which the “recombinant UMI read abundance (log10)” value worked out at 0.

In the case of “CCAACGGCATGGACCGGTTTTCCCGGTAATCCGTATTTGCG (site CCAACGGCTCG)”, the “recombinant UMI read abundance (log10)” value turned out to be 1.52.

Source of the values: the supplement of paper PMC11208160.
